Experimental data reported in article PMC11855827, “High-Throughput Screening of Five Compound Libraries for Anthelmintic Activity and Toxicity Leads to the Discovery of Two Flavonoid Compounds” (International Journal of Molecular Sciences, 2025).
Read-outs that look alike come from different tables or passages of the source.

System: C. elegans
Assay: microbe, parasite or virus in culture
Conditions: Caenorhabditis elegans
[1] = 0 h, read-out: Percentage of motility inhibition 0 h, Table S2, C. elegans SS assay, 110 μM, 0 h, averages of 4 data points
[2] = 24 h, read-out: Percentage of motility inhibition 24 h, Table S2, C. elegans SS assay, 110 μM, 24 h, averages of 4 data points

C[C@@H](O)[C@H]1C(=O)N2C(C(=O)O)=C(SC3CN(C4=NCCS4)C3)[C@H](C)[C@H]12 [Tebipenem]
inhibition at 110 µM [1]: 0%
inhibition at 110 µM [2]: 7%

CC(C)(C)C(O)(CCc1ccc(Cl)cc1)Cn1cncn1 (stereo not shown) [Tebuconazole]
inhibition at 110 µM [1]: 32%
inhibition at 110 µM [2]: 1%

COc1c(O[C@@H]2O[C@H](CO)[C@@H](O)[C@H](O)[C@H]2O)cc2occ(-c3ccc(O)cc3)c(=O)c2c1O [Tectoridin]
inhibition at 110 µM [1]: 1%
inhibition at 110 µM [2]: 11%

COc1c(O)cc2occ(-c3ccc(O)cc3)c(=O)c2c1O [Tectorigenin]
inhibition at 110 µM (0 h, read-out: Percentage of motility inhibition 0 h): 0%
inhibition at 110 µM (24 h, read-out: Percentage of motility inhibition 24 h): 0%

Cn1nnc(-c2ccc(-c3ccc(N4C[C@H](CO)OC4=O)cc3F)cn2)n1 [Tedizolid]
inhibition at 110 µM [1]: 20%
inhibition at 110 µM [2]: 12%

Fc1ccccc1-c1nc2ccn(Cc3ccc(-c4ccc(C(F)(F)F)cc4C(F)(F)F)nn3)cc-2n1 [Tegobuvir]
inhibition at 110 µM [1]: 68%
inhibition at 110 µM [2]: 34%

CCC[C@H](NC(=O)[C@@H]1[C@H]2CCC[C@H]2CN1C(=O)[C@@H](NC(=O)[C@@H](NC(=O)c1cnccn1)C1CCCCC1)C(C)(C)C)C(=O)C(=O)NC1CC1 [Telaprevir]
inhibition at 110 µM [1]: 7%
inhibition at 110 µM [2]: 0%

Cc1cn([C@@H]2C[C@@H](O)[C@H](CO)O2)c(=O)[nH]c1=O [Telbivudine]
inhibition at 110 µM [1]: 39%
inhibition at 110 µM [2]: 1%

C[C@H](Cn1cnc2c(N)ncnc21)OCP(=O)(O)O [Tenofovir]
inhibition at 110 µM [1]: 22%
inhibition at 110 µM [2]: 16%

COc1ccc2c(c1)CC=C(CO)c1cc3c(cc1-2)OCO3 [Tenuifolin]
inhibition at 110 µM [1]: 0%
inhibition at 110 µM [2]: 1%

CN(C/C=C/C#CC(C)(C)C)Cc1cccc2ccccc12 [Terbinafine]
inhibition at 110 µM [1]: 31%
inhibition at 110 µM [2]: 0%

CC(C)(C)NCC(O)c1cc(O)cc(O)c1 (stereo not shown) [Terbutaline]
inhibition at 110 µM [1]: 9%
inhibition at 110 µM [2]: 2%

CC(C)N1CCN(c2ccc(OCC3COC(Cn4cncn4)(c4ccc(Cl)cc4Cl)O3)cc2)CC1 (stereo not shown) [Terconazole]
inhibition at 110 µM [1]: 26%
inhibition at 110 µM [2]: 3%

CC1(C)CC[C@]2(C(=O)O)CC[C@]3(C)C(=CC[C@@H]4[C@@]5(C)C[C@@H](O)[C@H](O)[C@@](C)(CO)[C@@H]5[C@H](O)C[C@]43C)[C@@H]2C1 [Terminolic acid]
inhibition at 110 µM [1]: 26%
inhibition at 110 µM [2]: 10%

CN(C)[C@@H]1C(O)=C(C(N)=O)C(=O)[C@@]2(O)C(O)=C3C(=O)c4c(O)cccc4[C@@](C)(O)[C@H]3C[C@@H]12 [Tetracycline]
inhibition at 110 µM [1]: 39%
inhibition at 110 µM [2]: 46%

COc1ccc2c(c1OC)CN1CCc3cc4c(cc3C1C2)OCO4 (stereo not shown) [Tetrahydroberberine]
inhibition at 110 µM [1]: 2%
inhibition at 110 µM [2]: 0%

C[C@H](O)[C@H](O)[C@H]1CNc2nc(N)[nH]c(=O)c2N1 [Tetrahydrobiopterin]
inhibition at 110 µM [1]: 0%
inhibition at 110 µM [2]: 3%

O=C(CCCCc1ccc2c(c1)OCO2)N1CCCCC1 [Tetrahydropiperine]
inhibition at 110 µM [1]: 0%
inhibition at 110 µM [2]: 0%

c1ccc(C2CN3CCSC3=N2)cc1 (stereo not shown) [Tetramisole, reference compound]
inhibition at 110 µM (0 h, read-out: Inhibition (%) 110 μM (0 h), C. elegans L4 motility, 110 μM, 0 h, mean ± SD of four experiments): 78 ± 2%
inhibition at 110 µM (24 h, read-out: Inhibition (%) 110 μM (24 h), C. elegans L4 motility, 110 μM, 24 h, mean ± SD of four experiments): 82 ± 3%

O=c1c(O)cc([C@H]2Oc3cc(O)cc(O)c3C[C@H]2O)cc2c([C@H]3Oc4cc(O)cc(O)c4C[C@H]3O)cc(O)c(O)c12 [Theaflavin]
inhibition at 110 µM [1]: 11%
inhibition at 110 µM [2]: 5%

Cc1ncc(C[n+]2csc(CCO)c2C)c(N)n1 [Thiamine monochloride]
inhibition at 110 µM [1]: 13%
inhibition at 110 µM [2]: 6%

CS(=O)(=O)c1ccc([C@@H](O)[C@@H](CO)NC(=O)C(Cl)Cl)cc1 [Thiamphenicol]
inhibition at 110 µM [1]: 24%
inhibition at 110 µM [2]: 1%

Cc1nc(C(F)(F)F)c(C(=O)Nc2c(Br)cc(OC(F)(F)F)cc2Br)s1 [Thifluzamide]
inhibition at 110 µM [1]: 69%
inhibition at 110 µM [2]: 29%
